Columns and labels:
Assay type in all cases: in vivo, human
[1] = Fatigue feeling mitigation test, VAS general fatigue feeling (Example 5); settings: after 8-week intake, about 1000 mg/day; p<0.05
Description: (§1) As the test subjects, 86 healthy males at the ages of 20 to 49 who have exercise habits of conducting exercise with an intensity of 5 METs or more for 30 minutes or more once or twice a week and who can continue the exercise habits during the test period as well were selected.
(§2) Among the 86 test subjects, 43 test subjects were selected as an α-cyclodextrin (αCD) intake group, and the remaining 43 test subjects were selected as a placebo group. The test subjects themselves were not informed who belonged to which group.
(§3) Test Supplements (tablets) having compositions described in Table 4 below were used. One tablet of the test supplements was of about 600 mg.
(§4) Each test subject of the αCD intake group and the placebo group was asked to take in 4 tablets of the above test supplements once a day at any timing. That is, each test subject of the α-cyclodextrin intake group was asked to take in about 1000 mg of α-cyclodextrin per day.
(§5) The intake period for the test supplements was set to 8 weeks, and the heart rate during exercise was measured, before the start of the intake, after 4-week intake, and after 8-week intake to evaluate change in heart rate. In addition, a questionnaire on fatigue feeling was conducted before the start of the intake of the test supplements and after 8-week intake, and change in travel time was evaluated. […]

[2] = Suppression of increase in heart rate during exercise, Aerobike exercise loading test (Example 4); settings: about 1000 mg/day
Description: as §1, §2, §3, §4, §5

[3] = test system: Bacteroides uniformis; assay: Proliferation of Bacteroides uniformis in the intestinal tract, quantification PCR of feces (Example 1); settings: about 200 mg α-cyclodextrin per day, oral tablets; 8w vs 0w; p<0.05
Description: As test subjects, 21 healthy males at the ages of 20 to 49 who have exercise habits of conducting exercise with an intensity of 5 METs or more for 30 minutes or more once or twice a week and who can continue the exercise habits during the test period as well were selected. Among the 21 test subjects, 10 test subjects were selected as an α-cyclodextrin (αCD) intake group, and the remaining 11 test subjects were selected as a placebo group. The test subjects themselves were not informed who belonged to which group. Test Supplements (tablets) having compositions described in Table 1 below were used. One tablet of the test supplements was of about 250 mg. […] The intake period for the test supplements was set to 9 weeks, and change in gut flora was evaluated, a questionnaire on fatigue feeling was conducted, and change in travel time was evaluated, before the start of the intake, after 4-week intake, and after 8-week intake. […] DNA was extracted from the collected feces by a conventional method, and the absolute number of Bacteroides uniformis in the intestinal tract was evaluated by conducting quantification PCR (probe method) with a conventional method using a forward primer, a reverse primer, and a probe targeting a sequence specific to the 16Sr DNA sequence region of Bacteroides uniformis with reference to the description of Anaerobe (2011), 17, 64-68, Jia Tong et al.

OC[C@H]1O[C@@H]2O[C@H]3[C@H](O)[C@@H](O)[C@@H](O[C@H]4[C@H](O)[C@@H](O)[C@@H](O[C@H]5[C@H](O)[C@@H](O)[C@@H](O[C@H]6[C@H](O)[C@@H](O)[C@@H](O[C@H]7[C@H](O)[C@@H](O)[C@@H](O[C@H]1[C@H](O)[C@H]2O)O[C@@H]7CO)O[C@@H]6CO)O[C@@H]5CO)O[C@@H]4CO)O[C@@H]3CO [α-cyclodextrin]
general fatigue feeling (VAS) immediately after exercise, change vs before intake, compared with placebo group [1]: significantly decreased
average heart rate for 10 minutes immediately before the end of exercise (Δ value vs before intake), compared with placebo group ([2]; after 4-week intake, tendency): lower
average heart rate for 10 minutes immediately before the end of exercise (Δ value vs before intake), compared with placebo group ([2]; after 8-week intake, p<0.05): significantly lower
bacterial cell number of Bacteroides uniformis in the intestinal tract, after 8-week intake as compared with before intake [3]: about 2.5 times
